Results taken from ChEMBL document CHEMBL5120900, “Structure-Based Discovery of a Series of NSD2-PWWP1 Inhibitors” (J Med Chem, 2022).
Active and inactive are the calls of the source. No cut-off for these calls is given here.

How the values were obtained:
[1] = target: T1, Histone-lysine N-methyltransferase NSD2 (Homo sapiens) (UniProt O96028); assay: Inhibition of NSD2 in human RS4-11 cells assessed as decrease in RRAS2 gene expression at 10 uM incubated for 72 hrs by RT-PCR analysis; type: cell-based
T1 sequence (whole entry): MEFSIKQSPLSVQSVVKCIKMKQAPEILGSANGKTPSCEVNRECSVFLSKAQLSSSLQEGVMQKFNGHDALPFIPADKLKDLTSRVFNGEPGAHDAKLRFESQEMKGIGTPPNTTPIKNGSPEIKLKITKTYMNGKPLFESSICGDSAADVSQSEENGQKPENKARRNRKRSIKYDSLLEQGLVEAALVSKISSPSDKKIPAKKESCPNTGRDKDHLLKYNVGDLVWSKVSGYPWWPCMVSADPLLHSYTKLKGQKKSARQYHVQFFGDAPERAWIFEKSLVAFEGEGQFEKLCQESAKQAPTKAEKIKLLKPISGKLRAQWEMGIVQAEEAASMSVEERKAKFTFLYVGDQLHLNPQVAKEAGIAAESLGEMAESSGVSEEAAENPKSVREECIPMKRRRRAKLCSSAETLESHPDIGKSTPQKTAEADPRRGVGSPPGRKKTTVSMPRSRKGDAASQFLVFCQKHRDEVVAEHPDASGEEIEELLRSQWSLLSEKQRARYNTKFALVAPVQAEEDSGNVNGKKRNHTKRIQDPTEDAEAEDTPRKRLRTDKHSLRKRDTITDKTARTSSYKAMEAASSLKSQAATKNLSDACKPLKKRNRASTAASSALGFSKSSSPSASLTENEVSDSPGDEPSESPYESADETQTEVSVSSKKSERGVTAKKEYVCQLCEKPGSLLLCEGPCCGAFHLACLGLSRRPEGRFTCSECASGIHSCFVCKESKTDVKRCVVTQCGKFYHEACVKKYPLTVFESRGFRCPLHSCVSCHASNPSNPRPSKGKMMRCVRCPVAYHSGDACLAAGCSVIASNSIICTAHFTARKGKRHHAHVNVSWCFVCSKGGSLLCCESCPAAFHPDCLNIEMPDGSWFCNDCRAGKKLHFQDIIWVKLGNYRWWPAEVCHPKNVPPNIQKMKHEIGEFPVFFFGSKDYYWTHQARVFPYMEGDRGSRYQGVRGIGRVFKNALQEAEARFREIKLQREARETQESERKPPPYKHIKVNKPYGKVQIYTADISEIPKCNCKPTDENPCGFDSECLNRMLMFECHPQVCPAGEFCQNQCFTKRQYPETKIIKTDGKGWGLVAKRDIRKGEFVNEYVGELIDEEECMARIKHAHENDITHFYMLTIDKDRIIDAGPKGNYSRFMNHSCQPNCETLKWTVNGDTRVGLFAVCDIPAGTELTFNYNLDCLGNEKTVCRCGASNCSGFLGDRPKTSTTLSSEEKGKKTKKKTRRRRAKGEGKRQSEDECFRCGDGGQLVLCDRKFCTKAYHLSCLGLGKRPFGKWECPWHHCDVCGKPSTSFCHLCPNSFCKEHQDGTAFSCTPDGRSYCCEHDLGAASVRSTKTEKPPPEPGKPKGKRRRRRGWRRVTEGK

[2] = target: T1, Histone-lysine N-methyltransferase NSD2 (Homo sapiens); assay: Inhibition of NSD2 in human RS4-11 cells assessed as decrease in TEMEL2 gene expression at 10 uM incubated for 72 hrs by RT-PCR analysis; type: cell-based
[3] = target: T1, Histone-lysine N-methyltransferase NSD2 (Homo sapiens); assay: Inhibition of NSD2 in human RS4-11 cells assessed as decrease in PAK1 gene expression at 10 uM incubated for 72 hrs by RT-PCR analysis; type: cell-based
KMS-11 [4] = assay: Antiproliferative activity against human KMS-11 cells assessed as inhibition of cell proliferation measured after 6 days by CCK8 assay; type: functional, cell-based; details: KMS-11, 144 h
KMS-11 [5] = assay: Induction of apoptosis in human KMS-11 cells assessed as early apoptotic cells at 10 uM measured after 72 hrs by Annexin V FITC/PI staining based flow cytometry analysis (reference value: 16.5 %); type: functional
[6] = target: T1, Histone-lysine N-methyltransferase NSD2 (Homo sapiens); assay: Inhibition of NSD2 in human KMS-11 cells assessed as decrease in NCAM1 gene expression at 10 uM incubated for 72 hrs by RT-PCR analysis; type: cell-based
MV4-11 [7] = assay: Induction of apoptosis in human MV4-11 cells assessed as necrotic cells at 5 uM measured after 72 hrs by Annexin V FITC/PI staining based flow cytometry analysis (reference value: […]); type: functional
KMS-11 [8] = assay: Induction of apoptosis in human KMS-11 cells assessed as viable cells at 5 uM measured after 72 hrs by Annexin V FITC/PI staining based flow cytometry analysis (reference value: 69.4%); type: functional; details: read-out: Activity
[9] = target: T1, Histone-lysine N-methyltransferase NSD2 (Homo sapiens); assay: Inhibition of NSD2 in human KMS-11 cells assessed as decrease in PAK1 gene expression at 10 uM incubated for 72 hrs by RT-PCR analysis; type: cell-based
[10] = target: T1, Histone-lysine N-methyltransferase NSD2 (Homo sapiens); assay: Inhibition of NSD2 in human RS4-11 cells assessed as decrease in NCAM1 gene expression at 10 uM incubated for 72 hrs by RT-PCR analysis; type: cell-based
[11] = target: T1, Histone-lysine N-methyltransferase NSD2 (Homo sapiens); assay: Inhibition of NSD2 in human KMS-11 cells assessed as decrease in TGFA gene expression at 10 uM incubated for 72 hrs by RT-PCR analysis; type: cell-based
MM1.S = assay: Antiproliferative activity against human MM1.S cells assessed as inhibition of cell proliferation measured after 6 days by CCK8 assay; type: functional, cell-based; details: 144 h
RS4-11 = assay: Antiproliferative activity against human RS4-11 cells assessed as inhibition of cell proliferation measured after 6 days by CCK8 assay; type: functional, cell-based; details: RS4-11, 144 h
KMS-11 [12] = assay: Induction of apoptosis in human KMS-11 cells assessed as necrotic cells at 10 uM measured after 72 hrs by Annexin V FITC/PI staining based flow cytometry analysis (reference value: 0.88%); type: functional
[13] = target: T1, Histone-lysine N-methyltransferase NSD2 (Homo sapiens); assay: Binding affinity to His6/Sumo-tagged NSD2 PWWP1 (unknown origin) (208 to 368 residues) expressed in Escherichia coli BL21 (DE3) assessed as increase in melting temperature by thermal shift assay; details: DDE = dose-dependent effect
[14] = target: T1, Histone-lysine N-methyltransferase NSD2 (Homo sapiens); assay: Inhibition of NSD2 in human RS4-11 cells assessed as decrease in TGFA gene expression at 10 uM incubated for 72 hrs by RT-PCR analysis; type: cell-based
KMS-11 [15] = assay: Induction of apoptosis in human KMS-11 cells assessed as late apoptotic cells at 5 uM measured after 72 hrs by Annexin V FITC/PI staining based flow cytometry analysis (reference value: 13.3 %); type: functional
MV4-11 [16] = assay: Induction of apoptosis in human MV4-11 cells assessed as late apoptotic cells at 5 uM measured after 72 hrs by Annexin V FITC/PI staining based flow cytometry analysis (reference value: 3.02%); type: functional
KMS-11 [17] = assay: Induction of apoptosis in human KMS-11 cells assessed as early apoptotic cells at 5 uM measured after 72 hrs by Annexin V FITC/PI staining based flow cytometry analysis (reference value: 16.5 %); type: functional
MV4-11 [18] = assay: Cell cycle arrest in human MV4-11 cells assessed as increase in accumulation of G0/G1 phase at 5 to 10 uM measured after 24 hrs by PI staining based flow cytometric analysis; type: functional; details: dose 5-10 µM

Q: How did the inhibition [1] turn out when `Cc1cc(CN2CCC(N)CC2)cc(C)c1-c1ncn(C)c1-c1ccc(C#N)c2ccccc12` was run?
A: The inhibition was “Active”.

Q: What about the inhibition [2] of the same compound?
A: Its inhibition is “Active”.

Q: And the inhibition [3]?
A: The inhibition was “Active”.

Q: What about the IC50 (KMS-11 [4]) of the same compound?
A: The IC50 was 8.43 µM.

Q: And the Activity (KMS-11 [5])?
A: The Activity was 28.7%.

Q: What about the inhibition [6] of the same compound?
A: Its inhibition is “Active”.

Q: And the Activity (MV4-11 [7])?
A: Its Activity is 0.4%.

Q: What about the viability at 5 µM (KMS-11 [8]) of the same compound?
A: Its viability at 5 µM is 61.7%.

Q: And the inhibition [9]?
A: Its inhibition is “Active”.

Q: And the inhibition [10]?
A: The inhibition was “Active”.

Q: And the inhibition [11]?
A: Its inhibition is “Active”.

Q: What about the IC50 (MM1.S) of the same compound?
A: The IC50 was 11 µM.

Q: What about the IC50 (RS4-11) of the same compound?
A: Its IC50 is 6.3 µM.

Q: What about the Activity (KMS-11 [12]) of the same compound?
A: Its Activity is 1.86%.

Q: And the Activity [13]?
A: The Activity was “Dde”.

Q: And the inhibition [14]?
A: The inhibition was “Active”.

Q: And the Activity (KMS-11 [15])?
A: The Activity was 16.5%.

Q: And the Activity (MV4-11 [16])?
A: Its Activity is 2.37%.

Q: And the Activity (KMS-11 [17])?
A: Its Activity is 21.1%.

Q: What about the Activity (MV4-11 [18]) of the same compound?
A: Its Activity is “Active”.
